# Laboratory results reported in patent US10681909B2, “Herbicidal triazoles” (FMC Corporation, priority 2014, dated 2020).
# What was measured:
# lambsquarters = assay: Test C postemergence; assay type: in vivo, Chenopodium album
# Procedure, shortened: (§1)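 Plants are treated postemergence at the 1- to 4-leaf stage (2 to 18 cm), grown in sphagnum peat/vermiculite medium; preemergence treatment is applied to seed planted in loam soil with sand. Both use test chemical in a non-phytotoxic solvent mixture with surfactant.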
# velvetleaf = assay: Test C postemergence; assay type: in vivo, Abutilon theophrasti
# Procedure, shortened: as §1
# soybean = assay: Test C postemergence; assay type: in vivo, Glycine max
# Procedure, shortened: as §1
# foxtail, giant [1] = assay: Test A postemergence; assay type: in vivo, Setaria faberii; conditions: 0 to 100 scale (0 no effect, 100 complete control), approx. 10 d
# Procedure, shortened: (§2)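 Loam/sand soil mix; compound in non-phytotoxic solvent + surfactant. Pre: directed soil spray right after planting seed. Post: potted plants 2–10 cm, 1–2 leaf stage, sprayed with same formulation.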
# pigweed [2] = assay: Test C postemergence; assay type: in vivo, Amaranthus retroflexus
# Procedure, shortened: as §1
# rice = assay: Test B flooded paddy test; assay type: in vivo, Oryza sativa; conditions: 250 g ai/ha, applied to paddy water at 2-leaf stage, visual rating after 13 to 15 d, scale 0 (no effect) to 100 (complete control)
# Procedure, shortened: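 Pots were flooded to 3 cm above the soil at treatment, and compounds were applied directly into the paddy water. That depth was held throughout. After 13 to 15 d in a greenhouse, plants were rated visually against untreated controls.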
# barnyardgrass [3] = assay: Test A preemergence; assay type: in vivo, Echinochloa crus-galli; conditions: 0 to 100 scale (0 no effect, 100 complete control)
# Procedure, shortened: as §2
# corn [4] = assay: Test C postemergence; assay type: in vivo, Zea mays
# Procedure, shortened: as §1
# oilseed rape = assay: Test C postemergence; assay type: in vivo, Brassica napus; conditions: Oilseed Rape
# Procedure, shortened: as §1
# corn [5] = assay: Test A postemergence; assay type: in vivo, Zea mays; conditions: 0 to 100 scale (0 no effect, 100 complete control), approx. 10 d
# Procedure, shortened: as §2
# foxtail, giant [6] = assay: Test A preemergence; assay type: in vivo, Setaria faberii; conditions: 0 to 100 scale (0 no effect, 100 complete control)
# Procedure, shortened: as §2
# crabgrass, large = assay: Test C postemergence; assay type: in vivo, Digitaria sanguinalis
# Procedure, shortened: as §1
# wheat = assay: Test A postemergence; assay type: in vivo, Triticum aestivum; conditions: 0 to 100 scale (0 no effect, 100 complete control), approx. 10 d
# Procedure, shortened: as §2
# ryegrass, Italian = assay: Test C postemergence; assay type: in vivo, Lolium multiflorum
# Procedure, shortened: as §1
# wheat (winter wheat) = assay: Test C postemergence; assay type: in vivo, Triticum aestivum
# Procedure, shortened: as §1
# pigweed [7] = assay: Test A postemergence; assay type: in vivo, Amaranthus retroflexus; conditions: 0 to 100 scale (0 no effect, 100 complete control), approx. 10 d
# Procedure, shortened: as §2
# galium = assay: Test C postemergence; assay type: in vivo, Galium aparine
# Procedure, shortened: as §1
# pigweed [8] = assay: Test A preemergence; assay type: in vivo, Amaranthus retroflexus; conditions: 0 to 100 scale (0 no effect, 100 complete control)
# Procedure, shortened: as §2
# nutsedge, yellow = assay: Test C postemergence; assay type: in vivo, Cyperus esculentus
# Procedure, shortened: as §1
# waterhemp = assay: Test C postemergence; assay type: in vivo, Amaranthus rudis
# Procedure, shortened: as §1
# barnyardgrass [9] = assay: Test A postemergence; assay type: in vivo, Echinochloa crus-galli; conditions: 0 to 100 scale (0 no effect, 100 complete control), approx. 10 d
# Procedure, shortened: as §2
compound,measurement,setting,value
CCOc1nc(-c2ccc(Cl)cc2)nn1Cc1ccnc(C(F)(F)F)c1 [Compound 26],Plant response rating (scale of 0 to 100 where 0 is no effect and 100 is complete control),lambsquarters; 16 g ai/ha,100
same,Plant response rating (scale of 0 to 100 where 0 is no effect and 100 is complete control),lambsquarters; 31 g ai/ha,100
same,Plant response rating (scale of 0 to 100 where 0 is no effect and 100 is complete control),lambsquarters; 62 g ai/ha,100
same,Plant response rating (scale of 0 to 100 where 0 is no effect and 100 is complete control),lambsquarters; 125 g ai/ha,100
same,Plant response rating (scale of 0 to 100 where 0 is no effect and 100 is complete control),velvetleaf; 16 g ai/ha,60
same,Plant response rating (scale of 0 to 100 where 0 is no effect and 100 is complete control),velvetleaf; 31 g ai/ha,60
same,Plant response rating (scale of 0 to 100 where 0 is no effect and 100 is complete control),velvetleaf; 62 g ai/ha,65
same,Plant response rating (scale of 0 to 100 where 0 is no effect and 100 is complete control),velvetleaf; 125 g ai/ha,70
same,Plant response rating (scale of 0 to 100 where 0 is no effect and 100 is complete control),soybean; 16 g ai/ha,35
same,Plant response rating (scale of 0 to 100 where 0 is no effect and 100 is complete control),soybean; 31 g ai/ha,70
same,Plant response rating (scale of 0 to 100 where 0 is no effect and 100 is complete control),soybean; 62 g ai/ha,65
same,Plant response rating (scale of 0 to 100 where 0 is no effect and 100 is complete control),soybean; 125 g ai/ha,70
same,"Plant response rating, Foxtail, Giant","foxtail, giant [1]; 31 g ai/ha",70
same,"Plant response rating, Foxtail, Giant","foxtail, giant [1]; 125 g ai/ha",90
same,Plant response rating (scale of 0 to 100 where 0 is no effect and 100 is complete control),pigweed [2]; 16 g ai/ha,95
same,Plant response rating (scale of 0 to 100 where 0 is no effect and 100 is complete control),pigweed [2]; 31 g ai/ha,95
same,Plant response rating (scale of 0 to 100 where 0 is no effect and 100 is complete control),pigweed [2]; 62 g ai/ha,98
same,Plant response rating (scale of 0 to 100 where 0 is no effect and 100 is complete control),pigweed [2]; 125 g ai/ha,98
same,"Plant response rating, Rice, Flood",rice,45
same,"Plant response rating, Barnyardgrass",barnyardgrass [3]; 31 g ai/ha,60
same,"Plant response rating, Barnyardgrass",barnyardgrass [3]; 125 g ai/ha,90
same,Plant response rating (scale of 0 to 100 where 0 is no effect and 100 is complete control),corn [4]; 16 g ai/ha,25
same,Plant response rating (scale of 0 to 100 where 0 is no effect and 100 is complete control),corn [4]; 31 g ai/ha,25
same,Plant response rating (scale of 0 to 100 where 0 is no effect and 100 is complete control),corn [4]; 62 g ai/ha,30
same,Plant response rating (scale of 0 to 100 where 0 is no effect and 100 is complete control),corn [4]; 125 g ai/ha,35
same,Plant response rating (scale of 0 to 100 where 0 is no effect and 100 is complete control),oilseed rape; 16 g ai/ha,90
same,Plant response rating (scale of 0 to 100 where 0 is no effect and 100 is complete control),oilseed rape; 31 g ai/ha,98
same,Plant response rating (scale of 0 to 100 where 0 is no effect and 100 is complete control),oilseed rape; 62 g ai/ha,90
same,Plant response rating (scale of 0 to 100 where 0 is no effect and 100 is complete control),oilseed rape; 125 g ai/ha,95
same,"Plant response rating, Corn",corn [5]; 31 g ai/ha,30
same,"Plant response rating, Corn",corn [5]; 125 g ai/ha,40
same,"Plant response rating, Foxtail, Giant","foxtail, giant [6]; 31 g ai/ha",100
same,"Plant response rating, Foxtail, Giant","foxtail, giant [6]; 125 g ai/ha",100
same,Plant response rating (scale of 0 to 100 where 0 is no effect and 100 is complete control),"crabgrass, large; 16 g ai/ha",20
same,Plant response rating (scale of 0 to 100 where 0 is no effect and 100 is complete control),"crabgrass, large; 31 g ai/ha",20
same,Plant response rating (scale of 0 to 100 where 0 is no effect and 100 is complete control),"crabgrass, large; 62 g ai/ha",35
same,Plant response rating (scale of 0 to 100 where 0 is no effect and 100 is complete control),"crabgrass, large; 125 g ai/ha",50
same,"Plant response rating, Wheat",wheat; 31 g ai/ha,20
same,"Plant response rating, Wheat",wheat; 125 g ai/ha,20
same,Plant response rating (scale of 0 to 100 where 0 is no effect and 100 is complete control),"ryegrass, Italian; 16 g ai/ha",20
same,Plant response rating (scale of 0 to 100 where 0 is no effect and 100 is complete control),"ryegrass, Italian; 31 g ai/ha",35
same,Plant response rating (scale of 0 to 100 where 0 is no effect and 100 is complete control),"ryegrass, Italian; 62 g ai/ha",35
same,Plant response rating (scale of 0 to 100 where 0 is no effect and 100 is complete control),"ryegrass, Italian; 125 g ai/ha",40
same,Plant response rating (scale of 0 to 100 where 0 is no effect and 100 is complete control),wheat (winter wheat); 16 g ai/ha,5
same,Plant response rating (scale of 0 to 100 where 0 is no effect and 100 is complete control),wheat (winter wheat); 31 g ai/ha,10
same,Plant response rating (scale of 0 to 100 where 0 is no effect and 100 is complete control),wheat (winter wheat); 62 g ai/ha,10
same,Plant response rating (scale of 0 to 100 where 0 is no effect and 100 is complete control),wheat (winter wheat); 125 g ai/ha,10
same,"Plant response rating, Pigweed",pigweed [7]; 31 g ai/ha,80
same,"Plant response rating, Pigweed",pigweed [7]; 125 g ai/ha,100
same,Plant response rating (scale of 0 to 100 where 0 is no effect and 100 is complete control),galium; 16 g ai/ha,80
same,Plant response rating (scale of 0 to 100 where 0 is no effect and 100 is complete control),galium; 31 g ai/ha,90
same,Plant response rating (scale of 0 to 100 where 0 is no effect and 100 is complete control),galium; 62 g ai/ha,90
same,Plant response rating (scale of 0 to 100 where 0 is no effect and 100 is complete control),galium; 125 g ai/ha,90
same,"Plant response rating, Pigweed",pigweed [8]; 31 g ai/ha,90
same,"Plant response rating, Pigweed",pigweed [8]; 125 g ai/ha,100
same,Plant response rating (scale of 0 to 100 where 0 is no effect and 100 is complete control),"nutsedge, yellow; 16 g ai/ha",15
same,Plant response rating (scale of 0 to 100 where 0 is no effect and 100 is complete control),"nutsedge, yellow; 31 g ai/ha",25
same,Plant response rating (scale of 0 to 100 where 0 is no effect and 100 is complete control),"nutsedge, yellow; 62 g ai/ha",30
same,Plant response rating (scale of 0 to 100 where 0 is no effect and 100 is complete control),"nutsedge, yellow; 125 g ai/ha",20
same,Plant response rating (scale of 0 to 100 where 0 is no effect and 100 is complete control),waterhemp; 16 g ai/ha,95
same,Plant response rating (scale of 0 to 100 where 0 is no effect and 100 is complete control),waterhemp; 31 g ai/ha,98
same,Plant response rating (scale of 0 to 100 where 0 is no effect and 100 is complete control),waterhemp; 62 g ai/ha,98
same,Plant response rating (scale of 0 to 100 where 0 is no effect and 100 is complete control),waterhemp; 125 g ai/ha,98
same,"Plant response rating, Barnyardgrass",barnyardgrass [9]; 31 g ai/ha,40
same,"Plant response rating, Barnyardgrass",barnyardgrass [9]; 125 g ai/ha,70
